US6376692B1, “Zirconium alkoxytris (β-Diketonate), process for manufacturing the same, and liquid composition for formation of PZT film” (Kabushikikaisha Kojundokagaku Kenkyusho, priority 1999, dated 2002)
Like-named read-outs stand apart in the source and are kept apart here.

Details: room temperature

Row | amount dissolved in 1 liter of the solvent (Butyl Acetate) | amount dissolved in 1 liter of the solvent (Hexane) | amount dissolved in 1 liter of the solvent (THF) | amount dissolved in 1 liter of the solvent (Toluene) | amount dissolved in 1 liter of the solvent (n-Butyl Ether) | Compound
1 | 460 grams in 1 liter of the solven | 620 grams in 1 liter of the solven | 980 grams in 1 liter of the solven | 1100 grams in 1 liter of the solven | 430 grams in 1 liter of the solven | CC(C)(C)C(=O)C=C([O-])C(C)(C)C.CC(C)(C)C(=O)C=C([O-])C(C)(C)C.CC(C)(C)C(=O)C=C([O-])C(C)(C)C.CC(C)[O-].[Zr+4] [Zr(OiPr)(dpm)3, zirconium isopropoxy tris(dipivaloylmethanate)]
2 | 180 grams in 1 liter of the solven | 430 grams in 1 liter of the solven | 1020 grams in 1 liter of the solven | 290 grams in 1 liter of the solven | 240 grams in 1 liter of the solven | CC(C)(C)C(=O)C=C(O)C(C)(C)C.CC(C)(C)C(=O)C=C(O)C(C)(C)C.CC(C)(C)C(=O)C=C(O)C(C)(C)C.CC(C)(C)C(=O)C=C(O)C(C)(C)C.[Zr] [Zr(dpm)4]
